From patent US20220186186A1, “COMPOSITION FOR INDUCING DIRECT CONVERSION OF SOMATIC CELL INTO COMMON MYELOID PROGENITOR AND USE THEREOF” (KOREA INSTITUTE OF SCIENCE AND TECHNOLOGY, priority 2020, published 2022)

Test system: neonatal fibroblasts (HDF-N)
Experiment: Direct conversion of neonatal fibroblasts to CMP cells, marker expression by flow cytometry (FACS)
Assay type: cell-based, human
Method: Human dermal fibroblasts derived from human skin were purchased from ThermoFisher (USA). Human neonatal dermal fibroblasts (HDF-N; neonatal-C0045C) and human adult dermal fibroblasts (HDF-A; adult-C0135C) were purchased, respectively.
To confirm direct conversion potential of fibroblasts to CMP cells, flow cytometry (FACS) analyses were performed. Using the antibodies listed below, expression levels of proteins including the hematopoietic stem cell (HSC) membrane marker CD34, the blood cell membrane marker CD45, and the common myeloid progenitor (CMP) membrane marker CD14, were confirmed. The antibodies used are as follows: • FITC conjugated mouse anti-human CD34 monoclonal antibodies, eBioscience • APC conjugated mouse anti-human CD45 monoclonal antibodies, eBioscience • APC-eFluoro780 conjugated mouse anti-human CD14 monoclonal antibodies, eBioscience
Cells were dissociated into single cells with accutase and then washed with 1% FBS/PBS solution. After treatment with Fc blocker (BD Bioscience) for 10 minutes to prevent non-specific antigen binding, the cells were blocked for 15 minutes using 1% FBS/PBS solution. […] Subsequent to the reaction, the cells were washed twice with cold PBS solution and analyzed by flow cytometry using CytoFLEX by Beckman, and data were analyzed using the CytExpert program. […]

Cc1cccc(-c2n[nH]cc2-c2ccc3ncccc3n2)n1 [Example 3-1, 2-[3-(6-methylpyridin-2-yl)-1H-pyrazol-4-yl]-1,5-naphthyridine]
expression of the blood cell marker CD45 (28 days, inhibitor alone, Table 3 and FIG. 18): increase | CD45-expressing cell (%) compared to negative control group (Cnt) (cultured 28 days in reprogramming media with the chemical composition, Table 3): 6.36%
